Here are results for 16 molecules from patent US4058523A, “Bis(benzamido)-benzene derivatives” (Chugai Seiyaku Kabushiki Kaisha, priority 1974, dated 1977).

The test system of this assay is stress-induced ulcer formation. Nature of the assay: Inhibitory action on stress-induced ulcer formation. Format: in vivo, Sprague-Dawley strain male rats. Conditions: 100 mg/kg, oral, rats; for Number of Ulcers/Stomach, 3 mm or larger / Number of Ulcers/Stomach, up to 3 mm: 10 minutes before stress; for Ulcer Index (mean value ± standard deviation): Ulcer Index = a + b/10, Control 6.1 ± 2.3; for inhibition in vivo at 100 mg/kg: Rattus norvegicus, 16 h, stress-induced ulcer, read-out: Percent Inhibition. As to the method: Action on stress-induced ulcer formation
Sprague-Dawley strain male rats weighing 200-250 g were deprived of food for 24 hours, and then laid down on their backs on a screen and fixed by fastening their limbs with a strand. The fixed rats were submerged in water bath to the depth of ensiform process with their hind legs dipped first. Sixteen hours after the submergence, the rats were brought out from the bath and their stomachs were taken out. After light fixation with a 1% formalin aqueous solution, the stomach of each animal was cut open along their greater curvature and gastric mucosa was observed through a dissecting microscope. The ulcer was evaluated on an ulcer index calculated from the following equation: […]
wherein a is the number of big ulcers more than 3 mm in diameter and b is the number of small ulcers up to 3 mm in diameter.
A test compound was orally administered as a suspension in a 1% gum arabic aqueous solution, 10 minutes before exposure to stress.

The structures appear in SMILES notation. Structures can show the parent of a compound that is named as a salt.

Turning to `CCN(CC)CCCOc1ccc(NC(=O)c2ccccc2OC)cc1NC(=O)c1ccccc1OC` [1-(3'-diethylaminopropoxy)-2,4-bis(2"-methoxybenzamido)-benzene], the “Number of Ulcers/Stomach, 3 mm or larger” value was 0.8; the “Number of Ulcers/Stomach, up to 3 mm” value was 8; the “Ulcer Index (mean value ± standard deviation)” value was found to be 1.5 ± 2.4; the inhibition in vivo at 100 mg/kg is 76%.
The like results for `Cc1ccccc1C(=O)Nc1ccc(OCCCCN(C)C)c(NC(=O)c2ccccc2C)c1` [1-(4'-dimethylaminobutoxy)-2,4-bis(2"-methylbenzamido)-benzene] were, in that order, 0.2, 6, 1.0 ± 0.6 and 85%.
The matching figures for `CCN(CC)CCNC(=O)c1cc(NC(=O)c2ccccc2OC)cc(NC(=O)c2ccccc2OC)c1` [1-[N-(2'-diethylaminoethyl)-carbamoyl]-3,5-bis(2"-methoxybenzamido)-benzene hydrochloride]: 3.0, 13, 4.3 ± 2.2 and 33%.
The matching figures for `CCN(CC)CCCOc1ccc(NC(=O)c2ccc(C)cc2)cc1NC(=O)c1ccc(C)cc1` [1-(3'-diethylaminopropoxy)-2,4-bis(4"-methylbenzamido)-benzene]: 1.3, 17, 3.0 ± 0.8 and 52%.
Consider `CCN(CC)CCCOc1ccc(NC(=O)c2cccc(C)c2)cc1NC(=O)c1cccc(C)c1` [1-(3'-diethylaminopropoxy)-2,4-bis(3"-methylbenzamido)-benzene], for which the “Number of Ulcers/Stomach, 3 mm or larger” value is recorded as 0.3; the “Number of Ulcers/Stomach, up to 3 mm” value is on record as 6; the “Ulcer Index (mean value ± standard deviation)” value was found to be 0.8 ± 1.0; the inhibition in vivo at 100 mg/kg was determined as 87%.
Take `CCN(CC)CCNC(=O)c1ccc(NC(=O)c2cccc(C)c2)cc1NC(=O)c1cccc(C)c1` [1-[N-(2'-diethylaminoethyl)-carbamoyl]-2,4-bis(3"-methylbenzamido)-benzene]: the “Number of Ulcers/Stomach, 3 mm or larger” value is reported as 1.3; the “Number of Ulcers/Stomach, up to 3 mm” value is 27; the “Ulcer Index (mean value ± standard deviation)” value came to 4.0 ± 2.6; the inhibition in vivo at 100 mg/kg came to 46%.
As for `CCN(CC)CCNC(=O)c1ccc(NC(=O)c2ccc(C)cc2)cc1NC(=O)c1ccc(C)cc1` [1-[N-(2'-diethylaminoethyl)-carbamoyl]-2,4-bis(4"-methylbenzamido)-benzene], the “Number of Ulcers/Stomach, 3 mm or larger” value was 1.4; the “Number of Ulcers/Stomach, up to 3 mm” value is listed as 26; the “Ulcer Index (mean value ± standard deviation)” value came out at 4.0 ± 1.4; the inhibition in vivo at 100 mg/kg is 40%.
For the molecule `CCN(CC)CCNC(=O)c1ccc(NC(=O)c2ccccc2C)cc1NC(=O)c1ccccc1C` [1-[N-(2'-diethylaminoethyl)-carbamoyl]-2,4-bis(2"-methylbenzamido)-benzene], the “Number of Ulcers/Stomach, 3 mm or larger” value was determined as 1.2; the “Number of Ulcers/Stomach, up to 3 mm” value is on record as 29; the “Ulcer Index (mean value ± standard deviation)” value came out at 4.2 ± 0.4; the inhibition in vivo at 100 mg/kg turned out to be 38%.
Take `Cc1cccc(C(=O)Nc2ccc(OCCCCN(C)C)c(NC(=O)c3cccc(C)c3)c2)c1` [1-(4'-dimethylaminobutoxy)-2,4-bis(3"-methylbenzamido)-benzene]: the “Number of Ulcers/Stomach, 3 mm or larger” value amounted to 0.5; the “Number of Ulcers/Stomach, up to 3 mm” value was 8; the “Ulcer Index (mean value ± standard deviation)” value is given as 1.2 ± 1.6; the inhibition in vivo at 100 mg/kg came to 82%.
The like results for `CCN(CC)CCCCOc1ccc(NC(=O)c2ccccc2OC)cc1NC(=O)c1ccccc1OC` [1-(4'-diethylaminobutoxy)-2,4-bis(2"methoxybenzamido)-benzene] were, in that order, 0.8, 11, 1.8 ± 1.5 and 71%.
On to `CCN(CC)CCNC(=O)c1ccc(NC(=O)c2ccccc2OC)cc1NC(=O)c1ccccc1OC` [1-[N-(2'-diethylaminoethyl)-carbamoyl]-2,4-bis(2"-methoxybenzamido)-benzene hydrochloride], for which the “Number of Ulcers/Stomach, 3 mm or larger” value worked out at 1.1; the “Number of Ulcers/Stomach, up to 3 mm” value was 12; the “Ulcer Index (mean value ± standard deviation)” value was 3.8 ± 2.3; the inhibition in vivo at 100 mg/kg worked out at 40%.
The like results for `CCN(CC)CCCNC(=O)c1ccc(NC(=O)c2cccc(C)c2)cc1NC(=O)c1cccc(C)c1` [1-[N(3'-diethylaminopropyl)-carbamoyl]-2,4-bis(3"-methylbenzamido)-benzene] were, in that order, 0, 12, 1.0 ± 0.6 and 85%.
The like results for `Cc1ccc(C(=O)Nc2ccc(C(=O)NCCCN(C)C)c(NC(=O)c3ccc(C)cc3)c2)cc1` [1-[N-(3'-dimethylaminopropyl)-carbamoyl]-2,4-bis(4"-methylbenzamido)-benzene] were, in that order, 1.0, 19, 3.0 ± 1.4 and 60%.
Consider `CCN(CC)CCCOc1ccc(NC(=O)c2ccccc2C)cc1NC(=O)c1ccccc1C` [1-(3'-diethylaminopropoxy)-2,4-bis(2"-methylbenzamido)-benzene], for which the “Number of Ulcers/Stomach, 3 mm or larger” value was determined as 0; the “Number of Ulcers/Stomach, up to 3 mm” value turned out to be 6; the “Ulcer Index (mean value ± standard deviation)” value was determined as 0.5 ± 1.0; the inhibition in vivo at 100 mg/kg came out at 92%.
Consider `CCN(CC)CCCNC(=O)c1ccc(NC(=O)c2ccccc2OC)cc1NC(=O)c1ccccc1OC` [1-[N-(3'-diethylaminopropyl)-carbamoyl]-2,4-bis(2"-methoxybenzamido)-benzene], for which the “Number of Ulcers/Stomach, 3 mm or larger” value is reported as 0; the “Number of Ulcers/Stomach, up to 3 mm” value turned out to be 11; the “Ulcer Index (mean value ± standard deviation)” value is listed as 1.3 ± 0.5; the inhibition in vivo at 100 mg/kg stood at 80%.
The like results for `COc1ccccc1C(=O)Nc1ccc(OCCCN(C)C)c(NC(=O)c2ccccc2OC)c1` [1-(3'-dimethylaminopropoxy)-2,4-bis(2"-methoxybenzamido)-benzene trihydrochloride] were, in that order, 0.5, 13, 1.8 ± 2.4 and 71%.
